Laboratory results taken from PubChem BioAssay (NCI).
“And” between values parts separate entries of the source, which are not always exact repeats. Equal values may be shown once.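 Each compound was tested at five concentrations against cells in 96-well plates for 48 hours. Abbreviation: GI50, concentration required for 50% inhibition of growth. TGI marks complete inhibition of growth.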

Tests used:
Assay in all cases: NCI anticancer screen, dose series, 48 h
[1] = test system: RPMI-8226 leukemia
[2] = test system: MOLT-4 leukemia
[3] = test system: SK-OV-3 ovarian
[4] = test system: HCT-116 colon
[5] = test system: HL-60(TB) leukemia
[6] = test system: HT29 colon
[7] = test system: SW-620 colon
[8] = test system: BT-549 breast
[9] = test system: SK-MEL-5 melanoma
[10] = test system: SNB-19 CNS
[11] = test system: NCI-H23 lung
[12] = test system: T-47D breast
[13] = test system: HOP-62 NSCLC
[14] = test system: LOX IMVI melanoma
[15] = test system: NCI-H522 lung
[16] = test system: MDA-N
[17] = test system: HOP-92 NSCLC
[18] = test system: OVCAR-4 ovarian
[19] = test system: KM12 colon
[20] = test system: HCT-15 colon
[21] = test system: HS 578T breast
[22] = test system: M14 melanoma
[23] = test system: NCI-H226 lung
[24] = test system: DU-145 prostate
[25] = test system: TK-10 renal
[26] = test system: MALME-3M melanoma
[27] = test system: EKVX NSCLC
[28] = test system: OVCAR-5 ovarian
[29] = test system: OVCAR-3 ovarian
[30] = test system: A549 NSCLC
[31] = test system: UACC-62 melanoma
[32] = test system: MDA-MB-231 breast
[33] = test system: CCRF-CEM leukemia
[34] = test system: UACC-257 melanoma
[35] = test system: UO-31 renal
[36] = test system: NCI-H460 lung
[37] = test system: MDA-MB-435
[38] = test system: SK-MEL-28 melanoma
[39] = test system: COLO 205 colon
[40] = test system: ACHN renal
[41] = test system: SNB-75 CNS
[42] = test system: RXF 393 renal
[43] = test system: SF-295 CNS
[44] = test system: 786-0 renal
[45] = test system: NCI/ADR-RES ovarian
[46] = test system: SN12C renal
[47] = test system: A498 renal
[48] = test system: U251 CNS
[49] = test system: IGROV1 ovarian
[50] = test system: SK-MEL-2 melanoma
[51] = test system: OVCAR-8 ovarian
[52] = test system: SF-268 CNS
[53] = test system: MCF7 breast
[54] = test system: K-562 leukemia
[55] = test system: PC-3 prostate
[56] = test system: SF-539 CNS
[57] = test system: HCC-2998 colon
[58] = test system: CAKI-1 renal
[59] = test system: SR leukemia
[60] = test system: M19-MEL melanoma
[61] = test system: DLD-1 colon
[62] = test system: LXFL 529 NSCLC
[63] = test system: XF 498 CNS
[64] = test system: KM20L2 colon
[65] = test system: DMS 273 small cell lung
[66] = test system: SNB-78 CNS
[67] = test system: DMS 114 small cell lung

`NCCOCC(N)C(=O)O` (stereo not given) was tested. Which GI50 [1] did it give?
The GI50 was 39.1 µM and > 100 µM.

What about the TGI [1] of the same compound?
Its TGI is over 100 µM.

What about the TGI [2] of the same compound?
The TGI was over 100 µM.

What about the TGI [3] of the same compound?
The TGI was over 100 µM.

And the TGI [4]?
Its TGI is over 100 µM.

What about the TGI [5] of the same compound?
Its TGI is over 100 µM.

What about the TGI [6] of the same compound?
Its TGI is over 100 µM.

What about the TGI [7] of the same compound?
The TGI was over 100 µM.

What about the TGI [8] of the same compound?
The TGI was over 100 µM.

And the TGI [9]?
Its TGI is over 100 µM.

And the TGI [10]?
Its TGI is over 100 µM.

What about the TGI [11] of the same compound?
The TGI was over 100 µM.

What about the TGI [12] of the same compound?
The TGI was over 100 µM.

And the TGI [13]?
Its TGI is over 100 µM.

And the TGI [14]?
The TGI was over 100 µM.

And the TGI [15]?
The TGI was over 100 µM.

And the TGI [16]?
The TGI was over 100 µM.

What about the TGI [17] of the same compound?
The TGI was over 100 µM.

And the TGI [18]?
The TGI was over 100 µM.

And the TGI [19]?
Its TGI is over 100 µM.

What about the TGI [20] of the same compound?
The TGI was over 100 µM.

What about the TGI [21] of the same compound?
Its TGI is over 100 µM.

And the TGI [22]?
Its TGI is over 100 µM.

And the TGI [23]?
The TGI was over 100 µM.

What about the TGI [24] of the same compound?
The TGI was over 100 µM.

What about the TGI [25] of the same compound?
The TGI was over 100 µM.

And the TGI [26]?
The TGI was over 100 µM.

And the TGI [27]?
Its TGI is over 100 µM.

What about the TGI [28] of the same compound?
Its TGI is over 100 µM.

What about the TGI [29] of the same compound?
The TGI was over 100 µM.

And the TGI [30]?
The TGI was over 100 µM.

What about the TGI [31] of the same compound?
Its TGI is over 100 µM.

What about the TGI [32] of the same compound?
The TGI was over 100 µM.

What about the TGI [33] of the same compound?
Its TGI is over 100 µM.

And the TGI [34]?
Its TGI is over 100 µM.

What about the TGI [35] of the same compound?
Its TGI is over 100 µM.

And the TGI [36]?
The TGI was over 100 µM.

What about the TGI [37] of the same compound?
Its TGI is over 100 µM.

And the TGI [38]?
The TGI was over 100 µM.

What about the TGI [39] of the same compound?
Its TGI is over 100 µM.

And the TGI [40]?
The TGI was over 100 µM.

And the TGI [41]?
The TGI was over 100 µM.

And the TGI [42]?
The TGI was over 100 µM.

What about the TGI [43] of the same compound?
Its TGI is over 100 µM.

What about the TGI [44] of the same compound?
Its TGI is over 100 µM.

What about the TGI [45] of the same compound?
Its TGI is over 100 µM.

And the TGI [46]?
Its TGI is over 100 µM.

What about the TGI [47] of the same compound?
The TGI was over 100 µM.

And the TGI [48]?
Its TGI is over 100 µM.

And the TGI [49]?
Its TGI is over 100 µM.

What about the TGI [50] of the same compound?
The TGI was over 100 µM.

What about the TGI [51] of the same compound?
The TGI was over 100 µM.

And the TGI [52]?
Its TGI is over 100 µM.

What about the TGI [53] of the same compound?
Its TGI is over 100 µM.

What about the TGI [54] of the same compound?
The TGI was over 100 µM.

And the TGI [55]?
The TGI was over 100 µM.

What about the TGI [56] of the same compound?
The TGI was over 100 µM.

What about the TGI [57] of the same compound?
The TGI was over 100 µM.

What about the TGI [58] of the same compound?
The TGI was over 100 µM.

And the TGI [59]?
The TGI was over 100 µM.

How did the TGI [2] turn out when `CCOC(=O)C1COc2cc(-c3cc(=O)c4ccccc4o3)ccc2O1` (stereo not given) was run?
Its TGI is over 100 µM.

And the TGI [3]?
The TGI was over 100 µM.

And the TGI [4]?
The TGI was over 100 µM.

And the TGI [6]?
The TGI was 56.3 µM.

And the TGI [7]?
Its TGI is over 100 µM.

What about the TGI [9] of the same compound?
Its TGI is over 100 µM.

What about the TGI [10] of the same compound?
The TGI was over 100 µM.

And the TGI [60]?
The TGI was over 100 µM.

And the TGI [11]?
The TGI was over 100 µM.

What about the TGI [14] of the same compound?
The TGI was over 100 µM.

And the TGI [15]?
The TGI was over 100 µM.

What about the TGI [17] of the same compound?
The TGI was 39.3 µM.

What about the TGI [18] of the same compound?
Its TGI is over 100 µM.

What about the TGI [19] of the same compound?
Its TGI is over 100 µM.

And the TGI [22]?
The TGI was over 100 µM.

And the TGI [61]?
The TGI was over 100 µM.

What about the TGI [25] of the same compound?
The TGI was over 100 µM.

And the TGI [26]?
Its TGI is over 100 µM.

And the TGI [27]?
Its TGI is over 100 µM.

What about the TGI [28] of the same compound?
The TGI was over 100 µM.

What about the TGI [29] of the same compound?
Its TGI is over 100 µM.

What about the TGI [62] of the same compound?
Its TGI is over 100 µM.

What about the TGI [30] of the same compound?
The TGI was over 100 µM.

What about the TGI [31] of the same compound?
Its TGI is over 100 µM.

What about the TGI [63] of the same compound?
The TGI was 96.9 µM.

What about the TGI [33] of the same compound?
The TGI was over 100 µM.

And the TGI [64]?
Its TGI is over 100 µM.

What about the TGI [35] of the same compound?
Its TGI is 76.8 µM.

And the TGI [36]?
The TGI was over 100 µM.

What about the TGI [38] of the same compound?
The TGI was over 100 µM.

And the TGI [39]?
Its TGI is over 100 µM.

What about the TGI [40] of the same compound?
The TGI was over 100 µM.

What about the TGI [41] of the same compound?
The TGI was over 100 µM.

What about the TGI [42] of the same compound?
Its TGI is over 100 µM.

And the TGI [43]?
Its TGI is over 100 µM.

And the TGI [44]?
Its TGI is over 100 µM.

What about the TGI [65] of the same compound?
The TGI was over 100 µM.

And the TGI [46]?
The TGI was over 100 µM.

What about the TGI [48] of the same compound?
The TGI was over 100 µM.

And the TGI [49]?
The TGI was over 100 µM.

And the TGI [50]?
The TGI was over 100 µM.

And the TGI [51]?
Its TGI is 93.6 µM.

And the TGI [52]?
The TGI was over 100 µM.

What about the TGI [54] of the same compound?
The TGI was over 100 µM.

What about the TGI [66] of the same compound?
The TGI was over 100 µM.

What about the TGI [56] of the same compound?
The TGI was 96.3 µM.

What about the TGI [67] of the same compound?
Its TGI is over 100 µM.

What about the TGI [57] of the same compound?
Its TGI is over 100 µM.

What about the TGI [58] of the same compound?
Its TGI is over 100 µM.

And the TGI [59]?
Its TGI is over 100 µM.
